{"source": "paper PMC6929626", "about": "“PET/MRI enables simultaneous in vivo quantification of β-cell mass and function” (Theranostics, 2020)", "key": {"VDCC": {"system": "VDCC", "assay": "Manganese-enhanced MRI (T1 maps, R1, estimated [Mn]) of pancreas and insulinomas", "assay_type": "in vivo, mice", "conditions": "for [Mn]: estimated from (R1post-R1pre)/r1", "protocol": "In brief, mice were fasted for 4-6 hours and anesthetized with 1-2% isoflurane/O2 gas mixture (Vetland, Louisville, KY, USA) before the in vivo measurements. A tail vein catheter was initially placed for the co-injection of 50 µL of tracer solution (0.12 MBq/g bodyweight) and 50 µL of MnCl2:Bicine solution (75 µmol/kg body weight). The animals were placed in supine position on the bed in order to attenuate the motion artifacts rising from the respiratory movements. Thus, [^64Cu]Ex4 and MnCl2 solution were co-injected i.v. as a bolus a few seconds after the beginning of dynamic PET measurements. An additional i.v. injection of glucose solution (1.5 g/kg) was performed five minutes after the PET tracer and MR contrast agent injection to enhance the metabolic uptake of Mn by the pancreas. PET quantification was performed by 20-min static frames acquired simultaneously with 7T MRI scanner using a compatible PET-insert or consecutively using an Inveon-PET scanner (Inveon Dedicated PET, Siemens Healthineers, Knoxville, TN, USA). MR images were acquired using a mouse body quadrature volume RF-resonator with an inner diameter of 40 mm (MT0205, Bruker) on a 7 T Preclinical MR scanner (BioSpec 70/30, Bruker BioSpin MRI GmbH, Ettlingen, DE). During the acquisition, we monitored the breathing with an MR-compatible breathing sensor. The body temperature was maintained at 37 °C using a water-based warming pad.\nIn vivo MR measurement started with the acquisition of a rapid acquisition with relaxation enhancement (RARE) turbo-spin-echo (TSE) sequence with a large field of view to perform whole-body imaging with the following MR parameters: fat suppression module, repetition time (TR)/echo time (TE)=800/30.8 ms, respectively, field of view (FoV)=64×32×23 mm^3, matrix size 256×128, one average, bandwidth (BW)=75 kHz, RARE Factor (RF)=16 and an isotropic resolution of 0.25 mm. Then, we acquired consecutive RF-spoiled and slab selective gradient-echo (GRE) pulse sequences with short TR and keeping at the minimum the TE and using the following MR parameters: TR/TE=10/1.9 ms, FoV=34×34×17 mm^3, matrix size 128×128, two averages, BW=75 kHz, Sharpness=7 and approximatively 3 min of acquisition time per scan. Quantification of T1 was calculated by the acquisition of either two flip angles (4°, 22°), 0.27×0.27 mm^2 of in-plane resolution and 0.53 mm of slice thickness, or three flip angles (4°, 14°, 27°) with an isotropic resolution of 0.27 mm as described in Table 1.\nThe volume of interest (VOI) for the entire pancreas (Pancreas^Control; Pancreas^RIP1-Tag2) and the detected insulinomas (Insulinomas^RIP1-Tag2) were manually drawn in Inveon Research Workplace (Siemens Heathineers) after co-registration of the PET images. The T1-w images and the T1 maps were as well co-registered and used as anatomical references. The co-registered VOIs were exported and analyzed in MATLAB (R2013b; The MathWorks, Natick, MA, USA) using an in-house script. The percent injected dose per mL (%ID/mL) of the PET tracer was calculated voxel-wise by adjusting the radioactivity units (kBq/mL) for the injected activity and the half-life of ^64Cu (t1/2=12.7 h). On the other hand, the longitudinal relaxation rate (R1=1/T1) was calculated from the respective region drawn on the T1 maps. For the quantification, we considered voxels with R1 values between 0.4 and 10 s^-1. The estimated concentrations of Mn ([Mn]) were also calculated voxel-wise by the subtraction image acquired before and after the injection of MR-contrast agent and using the relaxivity (r1) of MnCl2:Bicine ([Mn]∝∆R1=(R1post-R1pre)/r1), which was calculated separately in a phantom study (Method S1 and Fig. S10). The indexes of [Mn] after 24 h were calculated using the overall mean of R1 obtained before and after 24 h, due to the different anatomical localization of the pancreata. […]"}, "[1]": {"assay": "LA-ICP-MS imaging of ^55Mn in pancreas sections, cross-validated with autoradiography", "assay_type": "in vivo, mice", "protocol": "The whole pancreata from control and transgenic RIP1-Tag2 mice were isolated after cervical dislocation under anesthesia. Then, the whole pancreata were embedded in O.C.T. (optimum cutting temperature) embedding compound (Sakura, Zoeterwonde, NL) and snap frozen at -20 °C. Subsequently, serial 20 µm cryosections were obtained using a Cryostat (Leica 1850, Leica GmbH, Wetzlar, DE) and exposed to a 35×43 cm Storage Phosphor Screen (445SI, Molecular Dynamics, Sunnyvale, CA, USA) at room temperature for 24 h and 48 h for animals sacrificed at 1 h and 24 h, respectively. Scanning of the phosphor imaging plate was performed using a Storm 840 scanner (STORM 840, Amersham Biosciences, Amersham, UK) with a spatial resolution of 50x50 µm^2 and analyzed using ImageJ software (US NIH, Bethesda, Maryland, USA). Thus, we calculated the main effect of the PET tracer uptake, expressed as islet-to-exocrine ratio to estimate the islet diameter identified as single spots throughout the pancreas sections in both groups (Fig. S3).\nThe autoradiography slides were scanned line-by-line at 60 µm laser spot size using an NWR 213 laser ablation system (New Wave Research, Fremont, CA, USA). […] The isotopes ^44Ca, ^65Cu, ^64Zn,^ 55Mn, ^13C were monitored among the exocrine and the endocrine tissue in the healthy and insulinoma mice. […]"}}, "data": [{"substance": "MnCl2:Bicine", "values": [{"measurement": "[Mn]", "setting": "VDCC; Table S1, VOI Insulinomas 10-wk, 1 h, n=3/4", "value": "1.4 ± 0.2", "unit": "mM×10^-1"}, {"measurement": "log10(R1)×10^1", "setting": "VDCC; Table S1, VOI Insulinomas 10-wk, 1 h, group mean ± SD of medians, n=3/4", "value": "1.8 ± 0.2"}, {"measurement": "[Mn]", "setting": "VDCC; Table S1, VOI Insulinomas 10-wk, 24 h, n=3/3", "value": "0.8 ± 0.2", "unit": "mM×10^-1"}, {"measurement": "log10(R1)×10^1", "setting": "VDCC; Table S1, VOI Insulinomas 10-wk, 24 h, group mean ± SD of medians, n=3/3", "value": "0.5 ± 0.5"}, {"measurement": "[Mn]", "setting": "VDCC; Table S1, VOI Insulinomas 13-wk, 1 h, n=3/4", "value": "0.9 ± 0.4", "unit": "mM×10^-1"}, {"measurement": "log10(R1)×10^1", "setting": "VDCC; Table S1, VOI Insulinomas 13-wk, 1 h, group mean ± SD of medians, n=3/4", "value": "0.6 ± 1.1"}, {"measurement": "[Mn]", "setting": "VDCC; Table S1, VOI Insulinomas 13-wk, 24 h, n=3/3", "value": "0.3 ± 0.4", "unit": "mM×10^-1"}, {"measurement": "log10(R1)×10^1", "setting": "VDCC; Table S1, VOI Insulinomas 13-wk, 24 h, group mean ± SD of medians, n=3/3", "value": "1.6 ± 0.2"}, {"measurement": "[Mn]", "setting": "VDCC; Table S1, VOI Pancreas Control, 1 h, group mean ± SD, n=3/4", "value": "1.8 ± 0.2", "unit": "mM×10^-1"}, {"measurement": "log10(R1)×10^1", "setting": "VDCC; Table S1, VOI Pancreas Control, 1 h, group mean ± SD of medians, n=3/4", "value": "2.7 ± 0.3"}, {"measurement": "[Mn]", "setting": "VDCC; Table S1, VOI Pancreas Control, 24 h, group mean ± SD, n=3/3", "value": "0.6 ± 0.2", "unit": "mM×10^-1"}, {"measurement": "log10(R1)×10^1", "setting": "VDCC; Table S1, VOI Pancreas Control, 24 h, group mean ± SD of medians, n=3/3", "value": "1.0 ± 0.8"}, {"measurement": "[Mn]", "setting": "VDCC; Table S1, VOI Pancreas RIP1-Tag2 10-wk, 1 h, n=3/4", "value": "1.2 ± 0.2", "unit": "mM×10^-1"}, {"measurement": "log10(R1)×10^1", "setting": "VDCC; Table S1, VOI Pancreas RIP1-Tag2 10-wk, 1 h, group mean ± SD of medians, n=3/4", "value": "1.5 ± 0.6"}, {"measurement": "[Mn]", "setting": "VDCC; Table S1, VOI Pancreas RIP1-Tag2 10-wk, 24 h, n=3/3", "value": "0.4 ± 0.1", "unit": "mM×10^-1"}, {"measurement": "log10(R1)×10^1", "setting": "VDCC; Table S1, VOI Pancreas RIP1-Tag2 10-wk, 24 h, group mean ± SD of medians, n=3/3", "value": "0.0 ± 0.2"}, {"measurement": "[Mn]", "setting": "VDCC; Table S1, VOI Pancreas RIP1-Tag2 13-wk, 1 h, n=3/4", "value": "1.0 ± 0.5", "unit": "mM×10^-1"}, {"measurement": "log10(R1)×10^1", "setting": "VDCC; Table S1, VOI Pancreas RIP1-Tag2 13-wk, 1 h, group mean ± SD of medians, n=3/4", "value": "0.9 ± 1.6"}, {"measurement": "[Mn]", "setting": "VDCC; Table S1, VOI Pancreas RIP1-Tag2 13-wk, 24 h, n=3/3", "value": "0.5 ± 0.4", "unit": "mM×10^-1"}, {"measurement": "log10(R1)×10^1", "setting": "VDCC; Table S1, VOI Pancreas RIP1-Tag2 13-wk, 24 h, group mean ± SD of medians, n=3/3", "value": "0.1 ± 0.3"}, {"measurement": "log10(R1)×10^1", "setting": "VDCC; VOI Insulinomas RIP1-Tag2 10-15 wk pooled, 1 h after i.v. 75 µmol/kg, mean ± SD", "value": "1.2 ± 1.2"}, {"measurement": "log10(R1)×10^1", "setting": "VDCC; VOI Insulinomas RIP1-Tag2 10-15 wk pooled, 24 h after i.v. 75 µmol/kg, mean ± SD", "value": "0.4 ± 0.5"}, {"measurement": "log10(R1)×10^1", "setting": "VDCC; VOI Pancreas Control, 1 h after i.v. 75 µmol/kg, 7 T, three flip angles, R1=1/T1, mean ± SD, n=3", "value": "3.0 ± 0.7"}, {"measurement": "log10(R1)×10^1", "setting": "VDCC; VOI Pancreas Control, 24 h after i.v. 75 µmol/kg, 7 T, three flip angles, mean ± SD, n=6", "value": "0.1 ± 0.6"}, {"measurement": "log10(R1)×10^1", "setting": "VDCC; VOI Pancreas RIP1-Tag2 10-15 wk pooled, 1 h after i.v. 75 µmol/kg, mean ± SD, n=7", "value": "1.2 ± 1.1"}, {"measurement": "log10(R1)×10^1", "setting": "VDCC; VOI Pancreas RIP1-Tag2 10-15 wk pooled, 24 h after i.v. 75 µmol/kg, mean ± SD, n=13", "value": "-0.1 ± 0.4"}, {"measurement": "[Mn] estimated in vivo, times lower in detected insulinomas than in pancreas of control mice", "setting": "VDCC; early time points (1 h)", "value": "~2", "unit": "times"}, {"measurement": "spatial distribution of exogenous ^55Mn in pancreas sections", "setting": "[1]; 1 h after injection, merged elemental images of ^55Mn, ^44Ca, ^64Zn, control and 13-wk RIP1-Tag2 mice", "value": "higher concentration of ^55Mn in the exocrine pancreas"}, {"measurement": "spatial distribution of exogenous ^55Mn in pancreas sections", "setting": "[1]; 24 h after injection, control and RIP1-Tag2 mice", "value": "only low levels of ^55Mn were found in the exocrine pancreas"}]}]}
